Experiments:
BRD4 (BDII_E352-M457) = BRD4 (BDII_E352-M457) (Homo sapiens (Human), UniProt O60885); experiment: TR-FRET bromodomain binding assay, BRD4 second bromodomain; conditions: His-tagged BD2, Alexa647-labeled probe 30 nM
Description: (§1) A time-resolved fluorescence resonance energy transfer (TR-FRET) assay was used to determine the affinities of compounds of the Examples listed in Table 1 for each bromodomain of BRD4. His-tagged first (BD1: amino acids K57-E168) and second (BD2: amino acids E352-E168) bromodomains of BRD4 were expressed and purified. An Alexa647-labeled BET-inhibitor was used as the fluorescent probe in the assay.
(§2) Compound dilution series were prepared in DMSO via a 3-fold serial dilution from 2.5 mM to 42 nM. Compounds were then diluted 6:100 in assay buffer (20 mM Sodium Phosphate, pH 6.0, 50 mM NaCl, 1 mM Ethylenediaminetetraacetic acid disodium salt dihydrate, 0.01% Triton X-100, 1 mM DL-Dithiothreitol) to yield 3× working solutions. Six microliters (μL) of the working solution was then transferred to white, low-volume assay plates (Costar #3673). A 1.5× assay mixture containing His-tagged bromodomain, Europium-conjugated anti-His antibody (Invitrogen PV5596) and the Alexa-647-conjugated probe molecule was also prepared. Twelve μL of this solution were added to the assay plate to reach a final volume of 18 μL. The final concentration of 1× assay buffer contains 2% DMSO, 50 μM-0.85 nM compound, 8 nM His-tagged bromodomain, 1 nM Europium-conjugated anti-His-tag antibody and 100 nM or 30 nM probe (for BDI or BDII, respectively). After a one-hour incubation at room temperature, TR-FRET ratios were determined using an Envision multilabel plate reader (Ex 340, Em […]).
(§3) TR-FRET data were normalized to the means of 24 no-compound controls (“high”) and 8 controls containing 1 μM un-labeled probe (“low”). Percent inhibition was plotted as a function of compound concentration and the data were fit with the 4 parameter logistic equation to obtain IC50s. Inhibition constants (Ki) were calculated from the IC50s, probe Kd and probe concentration. Typical Z′ values were between 0.65 and 0.75. The minimum significant ratio was determined to evaluate assay reproducibility (Eastwood et al., (2006) J Biomol Screen, 11: 253-261). The MSR was determined to be 2.03 for BDI and 1.93 for BDII, and a moving MSR (last six run MSR overtime) for both BDI and BDII was typically <3.

BRD4 (BDI_K57-E168) = BRD4 (BDI_K57-E168) (Homo sapiens (Human), UniProt O60885); experiment: TR-FRET bromodomain binding assay, BRD4 first bromodomain; conditions: His-tagged BD1, Alexa647-labeled probe 100 nM
Description: as §1, §2, §3

| Compound | Ki (BRD4 (BDII_E352-M457)) [nM] | Ki (BRD4 (BDI_K57-E168)) [nM] |
| --- | --- | --- |
| CCS(=O)(=O)c1ccc(OCC2CC2(F)F)c(-c2cn(C)c(=O)c3[nH]c(CN4CCN(c5nccs5)CC4)cc23)c1 (centres unmarked) [Example 17, 4-{2-[(2,2-difluorocyclopropyl)methoxy]-5-(ethylsulfonyl)phenyl}-6-methyl-2-{[4-(1,3-thiazol-2-yl)piperazin-1-yl]methyl}-1,6-dihydro-7H-pyrrolo[2,3-c]pyridin-7-one] | 60 | 4.4 |
| Cn1cc(-c2cc(S(C)(=O)=O)ccc2Oc2cccc(C(=O)NCc3ccc(F)cc3F)c2)c2cc[nH]c2c1=O [Example 37, N-(2,4-difluorobenzyl)-3-[2-(6-methyl-7-oxo-6,7-dihydro-1H-pyrrolo[2,3-c]pyridin-4-yl)-4-(methylsulfonyl)phenoxy]benzamide] | 6 | 18 |
| Cc1cccc(C)c1Oc1ccc(S(C)(=O)=O)cc1-c1cn(C)c(=O)c2[nH]c(-c3nc(C4CC4)no3)cc12 [Example 135, 2-(3-cyclopropyl-1,2,4-oxadiazol-5-yl)-4-[2-(2,6-dimethylphenoxy)-5-(methylsulfonyl)phenyl]-6-methyl-1,6-dihydro-7H-pyrrolo[2,3-c]pyridin-7-one] | 23.1 | 54.9 |
| CCNC(=O)c1cc2c(-c3ccc(C(=O)N(CCC(=O)OC)c4ccccc4)cc3Oc3c(C)cccc3C)cn(C)c(=O)c2[nH]1 [Example 160, methyl 3-[{3-(2,6-dimethylphenoxy)-4-[2-(ethylcarbamoyl)-6-methyl-7-oxo-6,7-dihydro-1H-pyrrolo[2,3-c]pyridin-4-yl]benzoyl}(phenyl)amino]propanoate] | 9.99 | 1710 |
| Cn1cc(-c2cc(S(C)(=O)=O)ccc2N[C@H]2CC[C@H](NCc3ccc(F)cc3F)CC2)c2cc[nH]c2c1=O [Example 109, 4-[2-({trans-4-[(2,4-difluorobenzyl)amino]cyclohexyl}amino)-5-(methylsulfonyl)phenyl]-6-methyl-1,6-dihydro-7H-pyrrolo[2,3-c]pyridin-7-one] | 8.3 | 1.6 |
| Cn1cc(-c2cc(S(C)(=O)=O)ccc2NC2CCN(S(=O)(=O)c3cccc(C#N)c3)CC2)c2cc[nH]c2c1=O [Example 105, 3-[(4-{[2-(6-methyl-7-oxo-6,7-dihydro-1H-pyrrolo[2,3-c]pyridin-4-yl)-4-(methylsulfonyl)phenyl]amino}piperidin-1-yl)sulfonyl]benzonitrile] | 17 | 7.2 |
| Cn1cc(-c2cc(S(C)(=O)=O)ccc2Oc2cccc(C(=O)NC3CCCCC3)c2)c2cc[nH]c2c1=O [Example 25, N-cyclohexyl-3-[2-(6-methyl-7-oxo-6,7-dihydro-1H-pyrrolo[2,3-c]pyridin-4-yl)-4-(methylsulfonyl)phenoxy]benzamide] | 6.1 | 19 |
| Cn1cc(-c2cc(S(C)(=O)=O)ccc2Oc2ccc(F)cc2F)c2cc(CN3CCN(c4nccs4)CC3)[nH]c2c1=O [Example 114, 4-[2-(2,4-difluorophenoxy)-5-(methylsulfonyl)phenyl]-6-methyl-2-{[4-(1,3-thiazol-2-yl)piperazin-1-yl]methyl}-1,6-dihydro-7H-pyrrolo[2,3-c]pyridin-7-one] | 80.7 | 6.93 |
| Cn1cc(-c2cc(S(C)(=O)=O)ccc2N[C@H]2CC[C@H](NCc3ccc(Cl)cc3)CC2)c2cc[nH]c2c1=O [Example 113, 4-[2-({trans-4-[(4-chlorobenzyl)amino]cyclohexyl}amino)-5-(methylsulfonyl)phenyl]-6-methyl-1,6-dihydro-7H-pyrrolo[2,3-c]pyridin-7-one] | 7 | 2.5 |
| Cc1noc(C2CCCN2Cc2cc3c(-c4cc(S(C)(=O)=O)ccc4Oc4ccc(F)cc4F)cn(C)c(=O)c3[nH]2)n1 (centres unmarked) [Example 131, 4-[2-(2,4-difluorophenoxy)-5-(methylsulfonyl)phenyl]-6-methyl-2-{[2-(3-methyl-1,2,4-oxadiazol-5-yl)pyrrolidin-1-yl]methyl}-1,6-dihydro-7H-pyrrolo[2,3-c]pyridin-7-one] | 165 | 49.7 |
| CN(C)CCCOc1ccc(CN2CCC(Nc3ccc(S(C)(=O)=O)cc3-c3cn(C)c(=O)c4[nH]ccc34)CC2)cc1 [Example 90, 4-{2-[(1-{4-[3-(dimethylamino)propoxy]benzyl}piperidin-4-yl)amino]-5-(methylsulfonyl)phenyl}-6-methyl-1,6-dihydro-7H-pyrrolo[2,3-c]pyridin-7-one] | 25 | 14 |

Now those with a lower Ki (BRD4 (BDII_E352-M457)), led by results:

| Ki (BRD4 (BDII_E352-M457)) [nM] | Ki (BRD4 (BDI_K57-E168)) [nM] | Compound |
| --- | --- | --- |
| 2.7 | 7.8 | COc1ccc(CNc2cccc(Oc3ccc(S(C)(=O)=O)cc3-c3cn(C)c(=O)c4[nH]ccc34)c2)cc1 [Example 79, 4-[2-{3-[(4-methoxybenzyl)amino]phenoxy}-5-(methylsulfonyl)phenyl]-6-methyl-1,6-dihydro-7H-pyrrolo[2,3-c]pyridin-7-one] |
| 1 | 0.8 | CCS(=O)(=O)Nc1cc(-c2cn(C)c(=O)c3[nH]ccc23)c(Oc2ccc(F)cc2F)cc1C(=O)O [Example 11, 5-(2,4-difluorophenoxy)-2-[(ethylsulfonyl)amino]-4-(6-methyl-7-oxo-6,7-dihydro-1H-pyrrolo[2,3-c]pyridin-4-yl)benzoic acid] |
| 2.1 | 4.6 | COc1ccc(S(=O)(=O)Nc2cccc(Oc3ccc(S(C)(=O)=O)cc3-c3cn(C)c(=O)c4[nH]ccc34)c2)cc1 [Example 39, 4-methoxy-N-{3-[2-(6-methyl-7-oxo-6,7-dihydro-1H-pyrrolo[2,3-c]pyridin-4-yl)-4-(methylsulfonyl)phenoxy]phenyl}benzenesulfonamide] |
| 1.4 | 3.1 | Cn1cc(-c2cc(S(C)(=O)=O)ccc2Oc2cccc(NCc3ccc(F)cc3)c2)c2cc[nH]c2c1=O [Example 62, 4-[2-{3-[(4-fluorobenzyl)amino]phenoxy}-5-(methylsulfonyl)phenyl]-6-methyl-1,6-dihydro-7H-pyrrolo[2,3-c]pyridin-7-one] |
| 3 | 5 | Cn1cc(-c2cc(S(C)(=O)=O)ccc2Oc2cccc(NS(=O)(=O)c3cccc([N+](=O)[O-])c3)c2)c2cc[nH]c2c1=O [Example 51, N-{3-[2-(6-methyl-7-oxo-6,7-dihydro-1H-pyrrolo[2,3-c]pyridin-4-yl)-4-(methylsulfonyl)phenoxy]phenyl}-3-nitrobenzenesulfonamide] |
| 4.9 | 4.1 | CC(=O)Nc1ccc(S(=O)(=O)N2CCC(Nc3ccc(S(C)(=O)=O)cc3-c3cn(C)c(=O)c4[nH]ccc34)CC2)cc1 [Example 103, N-{4-[(4-{[2-(6-methyl-7-oxo-6,7-dihydro-1H-pyrrolo[2,3-c]pyridin-4-yl)-4-(methylsulfonyl)phenyl]amino}piperidin-1-yl)sulfonyl]phenyl}acetamide] |
| 2.4 | 4.7 | Cn1cc(-c2cc(S(C)(=O)=O)ccc2Oc2cccc(NS(=O)(=O)c3ccc(F)cc3Cl)c2)c2cc[nH]c2c1=O [Example 58, 2-chloro-4-fluoro-N-{3-[2-(6-methyl-7-oxo-6,7-dihydro-1H-pyrrolo[2,3-c]pyridin-4-yl)-4-(methylsulfonyl)phenoxy]phenyl}benzenesulfonamide] |
| 1.7 | 3.8 | COc1cccc(CNc2cccc(Oc3ccc(S(C)(=O)=O)cc3-c3cn(C)c(=O)c4[nH]ccc34)c2)c1 [Example 66, 4-[2-{3-[(3-methoxybenzyl)amino]phenoxy}-5-(methylsulfonyl)phenyl]-6-methyl-1,6-dihydro-7H-pyrrolo[2,3-c]pyridin-7-one] |
| 5.6 | 39.9 | CCS(=O)(=O)c1ccc(Oc2c(C)cccc2Cl)c(-c2cn(C)c(=O)c3[nH]c(C(=O)NCCC#N)cc23)c1 [Example 123, 4-[2-(2-chloro-6-methylphenoxy)-5-(ethylsulfonyl)phenyl]-N-(2-cyanoethyl)-6-methyl-7-oxo-6,7-dihydro-1H-pyrrolo[2,3-c]pyridine-2-carboxamide] |
| 1.62 | 23.4 | CCNC(=O)/C=C/c1cc2c(-c3cc(S(=O)(=O)CC)ccc3Oc3c(C)cccc3C)cn(C)c(=O)c2[nH]1 [Example 134, (2E)-3-{4-[2-(2,6-dimethylphenoxy)-5-(ethylsulfonyl)phenyl]-6-methyl-7-oxo-6,7-dihydro-1H-pyrrolo[2,3-c]pyridin-2-yl}-N-ethylprop-2-enamide] |
| 4.1 | 7.4 | Cn1cc(-c2cc(S(C)(=O)=O)ccc2Oc2cccc(NCc3ccc(F)cc3Cl)c2)c2cc[nH]c2c1=O [Example 72, 4-[2-{3-[(2-chloro-4-fluorobenzyl)amino]phenoxy}-5-(methylsulfonyl)phenyl]-6-methyl-1,6-dihydro-7H-pyrrolo[2,3-c]pyridin-7-one] |

Reference: patent US9957263B2, “Bromodomain inhibitors” (AbbVie Inc., priority 2013, dated 2018)
